Assays:
cMyc in HCT116 cells = assay: cMyc cell based Acumen assay; settings: Homo sapiens, HCT-116, 4 hours, read-out: Relative IC50 for cMyc
HCC1806 = assay: Cell Proliferation Assay (CELL TITER GLO); type: cell-based; settings: Homo sapiens, 168 h; HCC1806, Breast Cancer, seven days
Experimental: (§1) Cell lines are plated at the density 5000 cells per well in 100 μL per well growth medium into a white 96-well cell culture plate. See Table 2 for cell line and culture medium information. Plates are incubated at 37° C. and 5% CO2. The following day, a serial dilution of the test compound is prepared by diluting the compound 1:3 in DMSO for 10 points. The DMSO plate is 1000× the final concentration. In addition to the CDK7 inhibitor, a DMSO alone column is included as a maximum growth control and 10 μM staurosporine final column is included as a maximum growth inhibition control. A 10× dilution plate is then prepared by adding 2 μL per well from the 1000×DMSO plate to 198 μL per well of OMEM (Life Technologies, Carlsbad, Calif., cat #31985-070). Cells are treated with indicated compound by adding 11 μL per well from the 10×OMEM plate to the cell plate containing 100 μL per well growth medium for a 1× final concentration. Plates are placed back into the incubator at 37° C. and 5% CO2. Seven days after compound addition, plates are removed from the incubator and allowed to equilibrate to RT. CELL TITER GLO® reagent is thawed at room temperature and then prepare by mixing one vial of assay buffer with one vial of substrate and swirl gently to mix. CELL TITER GLO® reagent is then added to the cell plate, 100 μL per well, and place on a Titer Plate Shaker at speed setting 2 for 15 minutes at room temperature. After 15 minute incubation on shaker, luminescence is read, 1 second per well, using a Wallac VICTOR2™. Nonlinear regression and sigmoidal dose-response curves are used to calculate the half maximal inhibitory concentration (IC50) with Graphpad Prism 6 software.

HCT116 = assay: Cell Proliferation Assay (CELL TITER GLO); type: cell-based; settings: Homo sapiens, HCT-116, 168 h; HCT116, Colorectal Cancer, seven days
Experimental: as §1

MCF7 = assay: Cell Proliferation Assay (CELL TITER GLO); type: cell-based; settings: Homo sapiens, 168 h; MCF7, Breast Cancer, seven days
Experimental: as §1

SNU-16 = assay: Cell Proliferation Assay (CELL TITER GLO); type: cell-based; settings: Homo sapiens, 168 h; SNU-16, Gastric Cancer, seven days
Experimental: as §1

A2780 xenograft = assay: Xenograft Tumor Model; type: in vivo, mice; settings: A2780, Ovary, ARID1A; 20 mg/kg PO QDx35
Experimental: (§2) To evaluate in vivo efficacy of a test compound, multiple xenograft tumor models are utilized. Briefly, 5-10×10^6 tumor cells in a 1:1 MATRIGEL® mix (0.2 mL total volume) are injected subcutaneously into the female athymic nude mice (Envigo, Harlan laboratories) for a majority of xenograft tumor models. Alternate mice strains are utilized to establish MDAMB468 (NOD SCID Gamma, Jackson labs), CT26 and EMT6 (BALB/c, Envigo, Harlan Laboratories) xenografts. After allowing tumors to reach a desired size of ˜300-500 mm^3, animals are randomized into groups of 6-8 for efficacy studies. Test compound is administered via oral gavage (PO) at indicated doses and regimens. Tumor growth and body weight are monitored over time to evaluate efficacy and signs of toxicity.
(§3) Test compound is formulated in 5% N-methyl-2-pyrrolidone (NMP) in 1% hydroxyethylcellulose, 0.25% polysorbate 80, 0.05% antifoam in purified water (HEC) and administered by oral gavage (final volume 0.2 mL) at the doses indicated in Table 4. A test compound is formulated on a weekly basis and stored at 4° C. Vehicles are administered to the control groups according the schedules used above using a volume of 0.2 mL per dose. Mice are dosed via oral gavage and tumor samples are collected at termination and stored at −80° C.
(§4) Tumor size and body weight are recorded and analyzed bi-weekly. Blood is collected using DBS (dried blood spot) card 2 hours after dose and at termination. Tumors are collected at study termination, cut into 3 sections and either snap frozen for exposure and protein analysis, or placed in RNAlater® for RNA analysis. Tissue samples are frozen and stored at −80° C.
(§5) Delta T/C % is calculated when the endpoint tumor volume in a treated group is at or above baseline tumor volume. The formula is 100*(T−T0)/(C−C0). Here, T and C are mean endpoint tumor volumes in the treated or control group, respectively. TO and CO are mean baseline tumor volumes in those groups. *: Significant (p<0.05)

COLO205 xenograft = assay: Xenograft Tumor Model; type: in vivo, mice; settings: COLO205, Colorectal; 20 mg/kg PO QDx28
Experimental: as §2, §3, §4, §5

CT26 xenograft = assay: Xenograft Tumor Model; type: in vivo, mice; settings: CT26, Colorectal; BALB/c; 20 mg/kg PO QDx24
Experimental: as §2, §3, §4, §5

EMT6 xenograft = assay: Xenograft Tumor Model; type: in vivo, mice; settings: EMT6, Breast; BALB/c; 20 mg/kg PO QDx28
Experimental: as §2, §3, §4, §5

H441 xenograft = assay: Xenograft Tumor Model; type: in vivo, mice; settings: H441, Lung; 20 mg/kg PO QDx35
Experimental: as §2, §3, §4, §5

H460 xenograft = assay: Xenograft Tumor Model; type: in vivo, mice; settings: H460, Lung, ARID1A; 20 mg/kg PO QDx35
Experimental: as §2, §3, §4, §5

HCC1806 xenograft = assay: Xenograft Tumor Model; type: in vivo, mice; settings: HCC1806, Breast, KMT2C; 20 mg/kg PO QDx28
Experimental: as §2, §3, §4, §5

HCT116 xenograft = assay: Xenograft Tumor Model; type: in vivo, mice; settings: HCT116, Colorectal, KMT2C; 25 mg/kg PO QDx21
Experimental: as §2, §3, §4, §5

MDAMB231 xenograft = assay: Xenograft Tumor Model; type: in vivo, mice; settings: MDAMB231, Breast; 20 mg/kg PO QDx35
Experimental: as §2, §3, §4, §5

MDAMB468 xenograft = assay: Xenograft Tumor Model; type: in vivo, mice; settings: MDAMB468, Breast, ARID1A, RB1; NOD SCID Gamma; 20 mg/kg PO QDx28
Experimental: as §2, §3, §4, §5

MIAPACA2 xenograft = assay: Xenograft Tumor Model; type: in vivo, mice; settings: MIAPACA2, Pancreatic, ARID1A; 20 mg/kg PO QDx35
Experimental: as §2, §3, §4, §5

MKN45 xenograft = assay: Xenograft Tumor Model; type: in vivo, mice; settings: MKN45, Stomach, KMT2C; 20 mg/kg PO QDx35
Experimental: as §2, §3, §4, §5

Which results are given for Cc1cc(NC2CCN(C(=O)O[C@H]3CCN(C(=O)/C=C/CN(C)C)C3)CC2)n2ncc(C(C)C)c2n1 [Example 1, [(3S)-1-[(E)-4-(dimethylamino)but-2-enoyl]pyrrolidin-3-yl] 4-[(3-isopropyl-5-methyl-pyrazolo[1,5-a]pyrimidin-7-yl)amino]piperidine-1-carboxylate]?
IC50 (cMyc in HCT116 cells): 82.8 nM; IC50 (HCC1806): 25.5 nM; IC50 (HCT116): 46 nM; IC50 (MCF7): 32 nM; IC50 (SNU-16): 23.1 nM; Avg. ΔT/C (A2780 xenograft): −41%; Avg. ΔT/C (COLO205 xenograft): −4%; Avg. ΔT/C (CT26 xenograft): 52%; Avg. ΔT/C (EMT6 xenograft): 17%; Avg. ΔT/C (H441 xenograft): 0%; Avg. ΔT/C (H460 xenograft): 16%; Avg. ΔT/C (HCC1806 xenograft): −87%; Avg. ΔT/C (HCT116 xenograft): −17%; Avg. ΔT/C (MDAMB231 xenograft): −25%; Avg. ΔT/C (MDAMB468 xenograft): −91%; Avg. ΔT/C (MIAPACA2 xenograft): 10%; Avg. ΔT/C (MKN45 xenograft): 57%
